Measured values as given in US6458838B1, “Adrenoleukodystrophy treatments” (Johns Hopkins University, priority 1999, dated 2002).
Where “and” joins values, the source holds several entries; their conditions need not be identical. Identical values can stand only once. Entries after “also recorded” stand apart in the source; their conditions may differ.

Columns and labels:
[1] = test system: ALDP; assay: Semi-quantitative RT-PCR in primary fibroblasts; type: cell-based, mouse; conditions: normal primary fibroblasts, 5 mM 4-PBA for 2 days
Experimental: (§1) Semi-quantitative RT-PCR was done on the mRNA isolated from these cells (FIG. 1). […] In addition, the expression of acyl-CoA oxidase (AOX), the rate-limiting enzyme in VLCFA β-oxidation, was not affected. Although previous studies have reported that ALDR mRNA was not detectable in fibroblasts by either northern or RT-PCR analyses, those RT-PCR studies used about 66 ng of CDNA; we used about 250 ng of cDNA.
(§2) Semi-quantitative RT-PCR analysis. Total RNA from tissue culture cells (10^6-10^7 cells/sample) was isolated using TRizol Reagent™ (Life Technologies), treated with DNase I (100-200 units in 40 mM HCI, 10 mM NaCl, 6 mM MgCl2, pH 7.3), incubated at 37° C. for 30 min, extracted with phenol/chloroform, and precipitated with isopropanol. cDNA was generated using MMLV reverse transcriptase (RT) (Life Technologies). PCR was done in the linear range of amplification (determined for each primerpair-cDNA combination). For each cDNA sample, a ‘cocktail’ was prepared, containing PCR buffer (Promega), 200 µM of each DNTP, 1.5 mM MgCl2, 250 ng cDNA, 0.25 U of Taq polymerase (Promega) and […]. The ‘cocktail’ was divided into separate tubes containing cDNA specific primers.
(§3) Primers. The PCR primers used are listed below. In the parentheses, h indicates human and m, mouse; this is followed by the gene name, product size and annealing temperature. […]

[2] = test system: PMP70; assay: Semi-quantitative RT-PCR in primary fibroblasts; type: cell-based, mouse; conditions: X-ALD or normal primary fibroblasts, 5 mM 4-PBA for 2 days
Experimental: as §1, §2, §3

[3] = test system: human control primary skin fibroblasts; assay: Immunofluorescence peroxisome counting; type: cell-based; conditions: 10 day exposure to 5 mM 4PBA
From the text: Peroxisomes were made visible with immunofluorescence using a polyclonal antibody to the C-terminal tripeptide (SKL) peroxisome targeting signal 1 (PTS1), which is present in most peroxisomal matrix proteins. […] We counted the peroxisomes after 10 days of treatment (Table 3). Slides were scanned visually and cells categorized as having low, medium or high numbers of peroxisomes. For each cell line, the number of peroxisomes is the mean of three ‘low’, four ‘medium’ and three ‘high’ cells (Table 3). There was no difference between control cells and X-ALD cells in either the number of peroxisomes per cell or in the response to 4-PBA. […] The 2.4-fold increase in the number of peroxisomes per cell was statistically significant (P<0.0000001, two-tailed Student's t-test). Peroxisome numbers obtained with an antibody against a peroxisomal membrane protein (Pex14p) gave similar results (data not shown).
Immunofluorescence and peroxisome counting. […] The anti-SKL (PTSI) antibody was a gift from S. Gould and the anti-Pex11α antibody was a gift from S. Mihalik. To count peroxisomes, we photographed immunofluorescence-stained cells after focusing on the cell nucleus, and determined the peroxisome number per cell with the aid of a colon counter after projecting the slides to enlarge the image.

[4] = test system: X-ALD mice; assay: In vivo efficacy: VLCFA levels in brain and adrenal glands after dietary 4-PBA; design: species or system mouse
Experimental: To measure the in vivo efficacy of 4-PBA, we supplemented mouse chow and water with 4-PBA.
AMN and Addison-only. […] In vivo delivery of 4-PBA to X-ALD mice. 4-PBA was delivered to X-ALD mice in their regular chow and water. 4-PBA chow was prepared by B'OServ (Holton Industries, Frenchtown, N.J.). […] Brains and adrenal glands from normal LD and X-ALD/4-PBA mice were collected for VLCFA analysis as described.
Biochemical measurements. […] For VLCFA measurements, total lipids were extracted, converted to methyl esters, purified by TLC and subjected to capillary GC analysis as described. Duplicate assays were set up independently and were assayed on different days. C24:0 β-oxidation activity of human and mouse fibroblasts and human lymphoblastoid cells was determined by measuring their capacity to degrade [1-^14C]-C24:0 fatty acid (American Radiolabeled Chemicals, St Louis, Mo.) to water-soluble products as described. Phytanic acid oxidation was measured as described. Cells were incubated with [2,3-^3H]-phytanic acid for 24 hours, and the release of ^3H-H2O to the aqueous medium was determined (activity in pmol/hr per mg protein).

O=C(O)CCCc1ccccc1 [4-PBA, 4-Phenyl butyrate] was tested, and the “ALDP expression (mRNA)” value [1] was “little, if any, effect”, the PMP70 expression level [2] was “little, if any, effect” and the “peroxisome number, Increase” value ([3]; Mean of four normal cell lines) was 2.3 fold. For the same compound, the “peroxisome number, Treated” value ([3]; Mean of four normal cell lines) was 939 ± 78 peroxisomes per cell, the “peroxisome number, Increase” value ([3]; cell line Normal GM 5565) was 2.3 fold and the “peroxisome number, Treated” value ([3]; cell line Normal GM 5565) was 961 ± 383 peroxisomes per cell. The “peroxisome number, Increase” value ([3]; cell line Normal GM 5659C) was 2.3 fold, the “peroxisome number, Treated” value ([3]; cell line Normal GM 5659C) was 907 ± 270 peroxisomes per cell and the “peroxisome number, Increase” value ([3]; cell line Normal GM 5756) was 2.3 fold. The “peroxisome number, Treated” value ([3]; cell line Normal GM 5756) was 852 ± 271 peroxisomes per cell, the “peroxisome number, Increase” value ([3]; cell line Normal GM 5757A) was 2.4 fold and the “peroxisome number, Treated” value ([3]; cell line Normal GM 5757A) was 1035 ± 338 peroxisomes per cell. The “adrenal gland VLCFA (C24:0 and C26:0) levels” value ([4]; dietary 4-PBA for 4 weeks) was “substantial reduction”, the “brain VLCFA (C24:0 and C26:0) levels” value ([4]; dietary 4-PBA for 4 weeks) was “substantial reduction” and the “correction of brain C24:0 level” value ([4]; dietary 4-PBA for 6 weeks) was “complete correction; also recorded: complete normalization”. The “correction of brain C26:0 level” value ([4]; dietary 4-PBA for 6 weeks) was 78% and 80%.
